Reference: ChEMBL document CHEMBL5465560, “Selectivity Literature for EUbOPEN Chemogenomic Library” (2024)

Experiments:
[1] = target: Glycogen synthase kinase-3 alpha (Homo sapiens, UniProt P49840); test: Selectivity interaction (KinomeScan (DiscoverX)) EUB0000666a GSK3A; conditions: at 10 µM
[2] = target: Dual specificity protein kinase CLK2 (Homo sapiens, UniProt P49760); test: Selectivity interaction (KinomeScan (DiscoverX)) EUB0000607a CLK2; conditions: at 10 µM
[3] = target: Voltage-dependent L-type calcium channel subunit alpha-1C (Homo sapiens, UniProt Q13936); test: Selectivity interaction (Panel of non-epigenetic targets (kinases, GPCRs, ion channels, and transporters, Eurofins) ) EUB0000271b CACNA1C; conditions: at 1 µM
Chain of Voltage-dependent L-type calcium channel subunit alpha-1C (Q13936 whole entry): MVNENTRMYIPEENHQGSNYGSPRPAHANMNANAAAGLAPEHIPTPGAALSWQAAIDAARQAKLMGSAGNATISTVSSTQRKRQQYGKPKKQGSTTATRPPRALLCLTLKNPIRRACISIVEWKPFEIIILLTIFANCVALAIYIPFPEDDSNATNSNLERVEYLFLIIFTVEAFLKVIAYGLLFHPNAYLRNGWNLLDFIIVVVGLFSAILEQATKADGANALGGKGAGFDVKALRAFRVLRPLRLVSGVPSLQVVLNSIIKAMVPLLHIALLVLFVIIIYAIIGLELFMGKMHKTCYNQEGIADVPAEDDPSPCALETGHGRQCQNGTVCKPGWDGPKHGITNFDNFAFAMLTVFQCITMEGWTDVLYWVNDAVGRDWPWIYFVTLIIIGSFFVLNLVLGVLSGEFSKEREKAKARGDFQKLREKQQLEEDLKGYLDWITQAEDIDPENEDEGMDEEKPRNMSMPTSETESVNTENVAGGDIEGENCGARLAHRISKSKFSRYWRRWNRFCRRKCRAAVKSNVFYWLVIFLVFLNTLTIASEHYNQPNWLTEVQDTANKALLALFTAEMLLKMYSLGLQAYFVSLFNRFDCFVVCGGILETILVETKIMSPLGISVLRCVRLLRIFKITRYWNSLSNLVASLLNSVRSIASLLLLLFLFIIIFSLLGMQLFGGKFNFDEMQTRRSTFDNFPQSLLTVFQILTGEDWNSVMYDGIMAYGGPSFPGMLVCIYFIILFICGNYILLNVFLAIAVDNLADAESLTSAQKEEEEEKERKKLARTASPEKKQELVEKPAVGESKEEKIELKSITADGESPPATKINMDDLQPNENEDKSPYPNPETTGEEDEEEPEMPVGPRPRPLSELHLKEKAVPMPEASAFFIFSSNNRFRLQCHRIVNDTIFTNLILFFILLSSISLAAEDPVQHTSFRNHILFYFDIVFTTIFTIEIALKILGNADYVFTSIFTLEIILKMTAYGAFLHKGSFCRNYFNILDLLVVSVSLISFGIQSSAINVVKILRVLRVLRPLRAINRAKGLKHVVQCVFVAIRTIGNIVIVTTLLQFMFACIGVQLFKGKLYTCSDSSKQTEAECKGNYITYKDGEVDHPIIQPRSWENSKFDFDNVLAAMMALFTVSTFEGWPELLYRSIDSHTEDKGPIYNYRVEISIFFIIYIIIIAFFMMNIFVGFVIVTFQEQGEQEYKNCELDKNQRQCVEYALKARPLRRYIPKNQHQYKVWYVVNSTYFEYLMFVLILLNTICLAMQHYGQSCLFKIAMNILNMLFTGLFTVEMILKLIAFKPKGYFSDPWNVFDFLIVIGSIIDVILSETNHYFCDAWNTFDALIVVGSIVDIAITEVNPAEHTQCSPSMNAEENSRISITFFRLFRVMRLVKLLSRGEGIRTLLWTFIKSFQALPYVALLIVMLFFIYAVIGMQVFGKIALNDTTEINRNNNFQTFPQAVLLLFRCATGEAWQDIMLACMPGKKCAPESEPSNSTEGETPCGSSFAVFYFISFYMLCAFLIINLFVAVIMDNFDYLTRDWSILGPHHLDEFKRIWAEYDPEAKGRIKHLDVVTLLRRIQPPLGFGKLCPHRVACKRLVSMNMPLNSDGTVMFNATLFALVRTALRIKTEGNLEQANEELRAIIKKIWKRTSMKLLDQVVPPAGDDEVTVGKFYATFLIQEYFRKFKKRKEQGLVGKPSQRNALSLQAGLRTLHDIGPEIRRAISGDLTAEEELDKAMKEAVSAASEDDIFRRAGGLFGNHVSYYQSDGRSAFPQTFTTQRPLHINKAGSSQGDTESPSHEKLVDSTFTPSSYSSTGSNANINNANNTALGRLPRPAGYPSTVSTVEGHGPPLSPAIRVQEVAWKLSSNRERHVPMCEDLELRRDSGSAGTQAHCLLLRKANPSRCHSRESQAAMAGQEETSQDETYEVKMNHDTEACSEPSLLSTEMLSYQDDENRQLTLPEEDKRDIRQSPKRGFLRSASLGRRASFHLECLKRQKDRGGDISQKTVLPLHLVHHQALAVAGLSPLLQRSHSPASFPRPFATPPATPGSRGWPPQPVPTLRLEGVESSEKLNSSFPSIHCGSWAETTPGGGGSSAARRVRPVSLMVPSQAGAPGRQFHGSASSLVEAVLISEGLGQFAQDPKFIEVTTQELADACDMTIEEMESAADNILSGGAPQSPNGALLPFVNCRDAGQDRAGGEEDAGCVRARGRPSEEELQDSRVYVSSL

[4] = target: Mitogen-activated protein kinase kinase kinase 11 (Homo sapiens) (UniProt Q16584); test: Selectivity interaction (KinomeScan (DiscoverX)) EUB0000595a MAP3K11; conditions: at 10 µM
[5] = target: Tyrosine-protein kinase ABL1 (Homo sapiens, UniProt P00519); test: Selectivity interaction (Kinase panel (DSF assay)) EUB0001558a ABL1
Chain of Tyrosine-protein kinase ABL1 (P00519 whole entry): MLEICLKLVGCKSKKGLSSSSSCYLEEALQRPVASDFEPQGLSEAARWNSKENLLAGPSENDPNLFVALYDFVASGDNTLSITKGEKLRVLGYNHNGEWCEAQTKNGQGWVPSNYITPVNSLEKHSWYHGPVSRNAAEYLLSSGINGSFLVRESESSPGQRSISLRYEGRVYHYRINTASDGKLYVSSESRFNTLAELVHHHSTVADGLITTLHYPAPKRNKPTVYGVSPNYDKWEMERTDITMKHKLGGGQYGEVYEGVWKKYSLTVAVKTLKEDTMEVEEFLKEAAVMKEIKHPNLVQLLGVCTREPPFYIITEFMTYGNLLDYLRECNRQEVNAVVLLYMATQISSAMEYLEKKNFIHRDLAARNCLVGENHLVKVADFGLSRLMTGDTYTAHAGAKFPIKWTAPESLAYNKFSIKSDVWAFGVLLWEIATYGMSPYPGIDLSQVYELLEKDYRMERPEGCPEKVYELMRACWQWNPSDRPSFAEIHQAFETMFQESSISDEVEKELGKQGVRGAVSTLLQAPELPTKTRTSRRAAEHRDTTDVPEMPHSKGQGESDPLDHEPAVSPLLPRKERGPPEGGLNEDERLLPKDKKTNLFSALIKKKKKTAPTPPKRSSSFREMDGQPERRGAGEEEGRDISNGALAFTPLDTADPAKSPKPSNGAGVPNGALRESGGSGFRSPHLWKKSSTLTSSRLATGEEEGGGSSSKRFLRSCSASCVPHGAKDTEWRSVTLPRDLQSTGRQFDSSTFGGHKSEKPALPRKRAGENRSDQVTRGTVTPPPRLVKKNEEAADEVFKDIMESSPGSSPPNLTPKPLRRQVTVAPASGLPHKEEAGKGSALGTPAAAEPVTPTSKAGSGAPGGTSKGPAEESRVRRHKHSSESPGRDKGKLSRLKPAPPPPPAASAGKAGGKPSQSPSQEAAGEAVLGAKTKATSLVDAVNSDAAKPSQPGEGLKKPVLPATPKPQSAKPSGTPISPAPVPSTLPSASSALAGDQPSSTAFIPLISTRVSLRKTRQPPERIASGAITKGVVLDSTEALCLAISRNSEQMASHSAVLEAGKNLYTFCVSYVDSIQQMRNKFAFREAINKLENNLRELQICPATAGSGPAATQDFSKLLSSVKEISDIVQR

KCNQ1 = KCNQ1 (Homo sapiens, UniProt P51787); test: Selectivity interaction (Panel of kinases, GPCRs, ion channels and transporters (enzymatic assay)) EUB0000223bCl KCNQ1
[6] = target: Ribosomal protein S6 kinase alpha-6 (Homo sapiens, UniProt Q9UK32); test: Selectivity interaction (KinomeScan (DiscoverX)) EUB0000045b RPS6KA6; conditions: at 10 µM
Chain of Ribosomal protein S6 kinase alpha-6 (Q9UK32 whole entry): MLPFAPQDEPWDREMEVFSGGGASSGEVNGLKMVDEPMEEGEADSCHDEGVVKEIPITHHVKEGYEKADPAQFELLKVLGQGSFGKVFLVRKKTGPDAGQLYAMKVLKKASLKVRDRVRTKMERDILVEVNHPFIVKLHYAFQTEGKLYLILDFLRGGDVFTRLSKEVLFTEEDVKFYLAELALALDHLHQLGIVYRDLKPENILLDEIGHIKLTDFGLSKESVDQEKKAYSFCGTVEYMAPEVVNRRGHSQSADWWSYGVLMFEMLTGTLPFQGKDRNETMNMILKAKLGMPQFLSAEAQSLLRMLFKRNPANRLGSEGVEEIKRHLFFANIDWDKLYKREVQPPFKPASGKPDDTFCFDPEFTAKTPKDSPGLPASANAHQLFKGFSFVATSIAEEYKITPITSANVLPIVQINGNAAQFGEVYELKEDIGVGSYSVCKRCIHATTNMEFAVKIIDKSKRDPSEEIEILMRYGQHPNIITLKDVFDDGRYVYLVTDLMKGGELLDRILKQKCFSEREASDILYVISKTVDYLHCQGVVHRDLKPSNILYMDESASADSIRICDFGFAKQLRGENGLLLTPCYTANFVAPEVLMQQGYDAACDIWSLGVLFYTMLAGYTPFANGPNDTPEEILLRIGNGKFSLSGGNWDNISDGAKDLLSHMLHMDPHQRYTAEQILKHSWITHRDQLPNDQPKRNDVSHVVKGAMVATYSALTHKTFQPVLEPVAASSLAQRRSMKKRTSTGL

[7] = target: T1, Ephrin type-B receptor 1 (Homo sapiens) (UniProt P54762); test: Selectivity interaction (KinomeScan (DiscoverX)) EUB0000229b EPHB1; conditions: at 10 µM
T1 sequence (whole entry): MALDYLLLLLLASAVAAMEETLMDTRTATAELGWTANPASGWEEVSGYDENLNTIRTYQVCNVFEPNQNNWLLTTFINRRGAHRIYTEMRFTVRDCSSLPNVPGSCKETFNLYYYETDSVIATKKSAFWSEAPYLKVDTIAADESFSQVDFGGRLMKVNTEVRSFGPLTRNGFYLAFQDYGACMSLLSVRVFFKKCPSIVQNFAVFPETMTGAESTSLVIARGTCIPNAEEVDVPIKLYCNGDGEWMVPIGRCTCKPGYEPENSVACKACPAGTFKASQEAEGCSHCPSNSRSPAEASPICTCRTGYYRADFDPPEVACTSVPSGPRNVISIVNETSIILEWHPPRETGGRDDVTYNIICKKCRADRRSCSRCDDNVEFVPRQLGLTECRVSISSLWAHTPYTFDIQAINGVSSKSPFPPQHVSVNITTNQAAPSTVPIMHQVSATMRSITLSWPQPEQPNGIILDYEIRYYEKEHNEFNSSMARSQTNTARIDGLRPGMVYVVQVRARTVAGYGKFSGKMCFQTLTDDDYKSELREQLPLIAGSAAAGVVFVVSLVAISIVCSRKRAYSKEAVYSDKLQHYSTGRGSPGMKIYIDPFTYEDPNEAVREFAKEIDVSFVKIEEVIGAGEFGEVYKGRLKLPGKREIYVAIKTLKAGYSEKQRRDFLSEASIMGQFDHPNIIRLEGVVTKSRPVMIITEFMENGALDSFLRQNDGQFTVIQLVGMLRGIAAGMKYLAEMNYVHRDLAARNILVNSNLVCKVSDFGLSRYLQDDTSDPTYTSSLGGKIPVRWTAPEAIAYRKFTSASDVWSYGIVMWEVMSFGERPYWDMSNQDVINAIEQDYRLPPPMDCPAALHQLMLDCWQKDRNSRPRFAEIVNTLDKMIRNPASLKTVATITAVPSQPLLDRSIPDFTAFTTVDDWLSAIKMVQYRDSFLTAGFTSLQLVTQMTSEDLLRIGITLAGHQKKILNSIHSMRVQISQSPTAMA

[8] = target: Phosphatidylinositol 4-phosphate 5-kinase type-1 gamma (Homo sapiens) (UniProt O60331); test: Selectivity interaction (KinomeScan (DiscoverX)) EUB0000229b PIP5K1C; conditions: at 10 µM
[9] = target: T2, Mitogen-activated protein kinase kinase kinase 13 (Homo sapiens) (UniProt O43283); test: Selectivity interaction (KinomeScan (DiscoverX)) EUB0000229b MAP3K13; conditions: at 10 µM
T2 sequence (whole entry): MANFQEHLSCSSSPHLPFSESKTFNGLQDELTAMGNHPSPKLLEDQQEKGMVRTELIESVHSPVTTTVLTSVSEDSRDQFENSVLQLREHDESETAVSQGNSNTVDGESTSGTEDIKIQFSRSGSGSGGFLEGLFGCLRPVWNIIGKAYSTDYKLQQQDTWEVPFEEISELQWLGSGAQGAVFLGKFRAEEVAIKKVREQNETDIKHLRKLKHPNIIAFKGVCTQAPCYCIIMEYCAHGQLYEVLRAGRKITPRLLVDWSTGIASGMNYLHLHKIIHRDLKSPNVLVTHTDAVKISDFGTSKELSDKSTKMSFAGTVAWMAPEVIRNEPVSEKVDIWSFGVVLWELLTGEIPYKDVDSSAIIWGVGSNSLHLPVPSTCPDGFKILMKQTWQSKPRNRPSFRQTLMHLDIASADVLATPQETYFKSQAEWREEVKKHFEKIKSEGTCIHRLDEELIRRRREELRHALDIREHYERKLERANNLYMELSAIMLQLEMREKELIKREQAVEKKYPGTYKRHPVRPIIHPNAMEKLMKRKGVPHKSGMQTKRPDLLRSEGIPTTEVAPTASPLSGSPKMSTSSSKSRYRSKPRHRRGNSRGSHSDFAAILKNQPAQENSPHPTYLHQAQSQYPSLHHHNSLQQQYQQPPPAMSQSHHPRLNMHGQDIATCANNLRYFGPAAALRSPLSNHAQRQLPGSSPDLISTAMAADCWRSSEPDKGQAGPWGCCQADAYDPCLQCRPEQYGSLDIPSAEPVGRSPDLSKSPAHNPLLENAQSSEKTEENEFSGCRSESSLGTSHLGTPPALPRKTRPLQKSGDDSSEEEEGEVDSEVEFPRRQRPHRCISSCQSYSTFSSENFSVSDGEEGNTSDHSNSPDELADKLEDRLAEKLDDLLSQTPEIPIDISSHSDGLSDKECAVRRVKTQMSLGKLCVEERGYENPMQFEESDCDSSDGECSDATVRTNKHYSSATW

Chain of Dual specificity protein kinase CLK2 (P49760 whole entry, looked up): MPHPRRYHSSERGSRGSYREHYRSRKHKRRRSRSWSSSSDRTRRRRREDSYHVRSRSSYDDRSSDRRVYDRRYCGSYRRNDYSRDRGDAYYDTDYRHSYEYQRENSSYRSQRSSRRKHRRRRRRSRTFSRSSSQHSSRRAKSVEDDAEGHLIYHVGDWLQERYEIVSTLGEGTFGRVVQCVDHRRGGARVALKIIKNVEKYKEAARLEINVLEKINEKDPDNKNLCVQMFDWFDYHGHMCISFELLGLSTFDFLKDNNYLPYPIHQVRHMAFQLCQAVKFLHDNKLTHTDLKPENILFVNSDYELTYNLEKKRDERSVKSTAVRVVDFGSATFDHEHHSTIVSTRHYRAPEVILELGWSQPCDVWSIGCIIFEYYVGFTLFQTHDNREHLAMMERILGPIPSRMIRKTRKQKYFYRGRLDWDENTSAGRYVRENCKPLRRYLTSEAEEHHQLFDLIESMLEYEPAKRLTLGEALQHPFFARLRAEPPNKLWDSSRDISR
Chain of Glycogen synthase kinase-3 alpha (P49840 2-483 limits assumed): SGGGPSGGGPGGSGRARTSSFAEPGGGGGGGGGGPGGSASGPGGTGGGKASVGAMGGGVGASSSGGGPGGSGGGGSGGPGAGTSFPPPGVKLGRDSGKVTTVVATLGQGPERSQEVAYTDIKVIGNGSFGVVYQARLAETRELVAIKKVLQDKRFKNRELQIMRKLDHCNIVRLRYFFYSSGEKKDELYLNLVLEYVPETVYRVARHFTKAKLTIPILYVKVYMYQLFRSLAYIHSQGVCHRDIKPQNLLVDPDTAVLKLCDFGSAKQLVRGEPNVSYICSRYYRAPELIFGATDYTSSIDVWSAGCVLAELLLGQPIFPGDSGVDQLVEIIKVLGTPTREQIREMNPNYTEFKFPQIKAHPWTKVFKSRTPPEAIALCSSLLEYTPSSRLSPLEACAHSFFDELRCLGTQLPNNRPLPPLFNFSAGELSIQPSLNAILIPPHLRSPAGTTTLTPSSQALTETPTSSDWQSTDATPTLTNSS

O=C(NOC[C@H](O)CO)c1ccc(F)c(F)c1Nc1ccc(I)cc1F
% of control [1]: 90%

CNC(=O)Nc1ccc(-c2nc(N3CC4CCC(C3)O4)c3cnn(C4CCC5(CC4)OCCO5)c3n2)cc1
% of control [2]: 98%

Cc1cc(C)cc([C@@H]2c3cc(C)ccc3NC(=O)CN2C(=O)c2ccc(Br)s2)c1
% of inhibition [3]: -8%

COCC(=O)NC/C=C/c1ccc2ncnc(Nc3ccc(Oc4ccc(C)nc4)c(C)c3)c2c1 [CP-724714]
% of control [4]: 92%

CC(C)(O)[C@H](F)CN1Cc2cc(NC(=O)c3cnn4cccnc34)c(N3CCOCC3)cc2C1=O
dTM [5]: 1.7 K

COc1cc(C(=O)N2CC[C@@H](O)[C@@H](N)C2)cc2nc(-c3cc4ccccc4n3CC3CC3)n(C)c12
XC50 (KCNQ1): > 25.1 µM

C=CC(=O)Nc1cc(-n2c(=O)ccc3cnc4ccc(-c5ccc(NS(C)(=O)=O)cc5)cc4c32)ccc1C
% of control [6]: 88%

COc1cc(N(C)c2ccnc3ccc(C(F)(F)F)cc23)cc(OC)c1OC
% binding [7]: 97%
% binding [8]: 53%
% binding [9]: 100%
